We go through one compound from patent publication US20060205682A1, “Antibiotic and combinations of antibiotic and symptomatic relief agent formulations” (priority 2005, published 2006).

Converted amounts (≈) assume the structure as drawn.

The data set is described as follows: physchem. The conditions noted are these: pH 8, aqueous buffer, thermodynamic from solid. Here is the method: A 5 ml aliquot of 5% potassium phosphate buffer is added to 500 mg of gamma-cyclodextrin and sonicated until a clear solution is formed. […] The process is repeated with two additional amounts of gamma-cyclodextrin. Known aliquots of each solution are placed in a 2 cm cell and analyzed using a UV-Vis Spectrophotomer between the wavelengths 200-400 nm.

For orientation: solubility (thermodynamic) means the concentration in solution at equilibrium with solid.

In turn, `COc1cc(Cc2cnc(N)nc2N)cc(OC)c1OC` [trimethoprim] came in with a thermodynamic solubility at 30 min of 350 µg/mL (≈ 1210 µM).
